Data on 1 compound can be found in patent US5420158A, “Naphthylalkylamines” (Adir et Compagnie, priority 1992, dated 1995).

For this test, the system named is Xenopus melanophores. In words: Melatonin-antagonist activity with respect to pigment aggregation. Type of test: cell-based, Xenopus laevis. The settings on record: compound at 10^-7 M, melatonin 10^-8 M. The method, then:
Melatonin is known to participate in regulation of the skin color of amphibians such as Xenopus (Xenopus laevis). It causes condensation of the […] granules in the melanophores of the dermis (Sugden D. European Journal of Pharmacology, vol. 213, pp: 405-408 (1992)).
The compounds of the invention were tested for their capacity to inhibit the effect of melatonin on Xenopus melanophores.
(According to the method described in Sugden D. Br. J. Pharmacol. vol. 104, pp 922-927, (1991)).
The neural crest of Xenopus embryos is dissected and the cells are isolated. The melanophores which appear after 2-3 days of culture are rapidly visible among the other cells emanating from the neural crest. The melanophores are cultured in Leibovitz L-15 medium (Gibco) and diluted (1/1) with deionized water containing 10% of fetal calf serum, 200 IU/cm^3 of penicillin, 200 μg/cm^3 of streptomycin and 2.5 μg/cm^3 of amphotericin B.
The experiments on the melanophores are carried out between days 7 and 12 of the culture.
The response of the isolated melanophores to melatonin is quantified by measuring the pigmented area using a computer-assisted image analyzer. The test compounds are added to the culture medium 10 to 15 min before the measurement.

Regarding `O=C(NCCc1cccc2ccccc12)C1CCC1` [Example 1, N-[2-(1-naphthyl)ethyl]cyclobutanecarboxamide], the “antagonism of the action of melatonin on pigment aggregation” value was “significantly antagonizes the action of melatonin”.
